Results as given in ChEMBL document CHEMBL1143021, “Synthesis of xanthone derivatives with extended pi-systems as alpha-glucosidase inhibitors: insight into the probable binding mode” (Bioorg Med Chem, 2007).

Test: Inhibition of yeast alpha glucosidase at pH 6.8
Set-up: species or system Saccharomyces cerevisiae

SMILES | IC50 [µM]
Oc1cc(O)c2c(c1)Oc1cc3ccccc3cc1C2 | 27.8
COc1cc(O)c2c(=O)c3cc4ccccc4cc3oc2c1 | 31.3
Oc1cc(O)c2c(c1)Oc1ccc3ccccc3c1C2 | 34.9
O=c1c2cc3ccccc3cc2oc2cc(O)cc(O)c12 | 9.3
OC[C@H]1NC(O)C[C@@H](O)[C@@H]1O (stereo not given in full) | 26.4
O=c1c2cc3cc(O)ccc3cc2oc2cc(O)cc(O)c12 | 5.8
O=c1c2cc3cccc(O)c3cc2oc2cc(O)cc(O)c12 | 8
O=c1c2cc3ccccc3cc2oc2c([N+](=O)[O-])c(O)cc(O)c12 | 20.1
O=c1c2c(O)cc(O)cc2oc2ccc3ccccc3c12 | 39.9
O=c1c2ccccc2oc2cc(O)cc(O)c12 | 161
